The subject of assay [1] is flank organ hair growth. In words: Golden Syrian hamster assay (flank organ hair mass). The assay is classed as in vivo. As to conditions: topical, thirteen applications; for % Inhibition (hair mass reduction): vs vehicle treated side. An excerpt: Male intact Golden Syrian hamsters are considered acceptable models for human beard hair growth in that they display oval shaped flank organs, one on each side, each about 8 mm. in major diameter. These organs produce fine light colored hair typical of the animal pelage found on the body. In response to androgens the flank organs produce dark coarse hair similar to male human beard hair. To evaluate the effectiveness of a composition in reducing hair growth, the flank organs of each of a group of hamsters are depilated by applying a thioglycolate based chemical depilatory (Surgex) and/or shaved. To one organ of each animal 10 μl. of vehicle alone once a day is applied, while to the other organ of each animal an equal amount of vehicle containing the compound under evaluation is applied. After thirteen applications (one application per day for five days a week), the flank organs are shaved and the amount of recovered hair (hair mass) from each is weighed. Percent-reduction of hair growth is calculated by subtracting the hair mass (mg) value of the test compound treated side from the hair mass value of the vehicle treated side; the delta value obtained is then divided by the hair mass value of the vehicle treated side, and the resultant number is multiplied by 100.
The above-described assay will be referred to herein as the “Golden Syrian hamster” assay. Preferred compositions provide a reduction in hair growth of at least about 15% and more preferably at least about 20%, when tested in the Golden Syrian hamster assay. Compositions described in Example 1 (above) were tested in the Golden Syrian hamster assay. […] AZT, a well-characterized inhibitor of reverse transcriptase, inhibits telomerase by blocking the […] of the enzyme.

Assay [2] deals with human hair follicles. As to the kind of experiment: Human hair follicle growth assay. It is filed as cell-based. As to conditions: day 0 to day 6. An excerpt:
Tissue source—Human skin was obtained from a plastic surgeon as a by-product of face-lift procedures. Immediately after removal, the skin was placed in Williams E medium containing antibiotics and refrigerated. The Williams E medium is a commercially obtained medium which has been formulated with essential nutrients for maintaining viability of tissues or cells such as of hair follicle in an in-vitro environment.
Hair Follicle Isolation and Culture—Human hair follicles in growth phase (anagen) were isolated from face-lift tissue under a dissecting scope using a scalpel and watchmakers forceps. The skin was sliced into thin strips exposing 2-3 rows of follicles that could readily be dissected. Follicles were placed into 0.5 ml Williams E medium supplemented with 2 mM L-glutamine, 10 μg/ml insulin, 100 ng/ml hydrocortisone, 100 units penicillin, 0.1 mg/ml streptomycin and 0.25 μg/ml amphotericin B. The follicles were incubated in 24 well plates (1 follicle/well) at 37° C. in an atmosphere of 5% CO2 and 95% air. Hair follicles were videorecorded in the 24-well plates under the dissecting scope under a power of 20×. Typically, hair follicle lengths were measured on day 0 (day follicles were placed in culture) and again on day 7. When testing compounds, the compound was included in the culture medium from time 0 and remained in the medium throughout the course of the experiment.
In this system follicle cells differentiate to form hair fiber and increase in length at a rate not dissimilar from that of humans, in vivo. Typically, hair fiber from these in-vitro follicles grow about 0.3 mm/day. […] This model of human hair growth is capable of identifying inhibitors of hair growth. The selective telomerase inhibitors -I, -IV and -V were obtained from Calbiochem, La Jolla, Calif. The data in Tables II-VI below show dose-dependent inhibition of human hair follicle growth by various compounds.

As usually defined, the inhibition is how much of the control response was suppressed. Higher therefore signals strong suppression.

As to `CC1COc2c(N3CCN(C)CC3)c(F)cc3c(=O)c(C(=O)O)cn1c23` (centres unmarked) [Ofloxacin, ofloxacin], the “Left (mg): hair mass for vehicle with test compound” value in assay [1] (dose 5%) is given as 1.56 ± .24 mg. For the same compound, the “% Inhibition (hair mass reduction)” value in assay [1] (dose 5%) came to 39 ± 7%. In addition, the “Length Increase (mm)” value is listed as 1.51 ± .24 mm in assay [2] (0.01 μM); 1.16 ± .12 mm in assay [2] (0.1 μM); 0.43 ± .11 mm in assay [2] (1.0 μM, separate control 1.40 ± .17 mm); 1.16 ± .12 mm in assay [2] (100 μM). Also, in assay [2] (Homo sapiens, 0.01 μM), 0.01 µM produced 10 ± 14% inhibition. Further, at 0.1 µM the inhibition in assay [2] (Homo sapiens, 0.1 μM) was 30 ± 7%. For the same compound, the inhibition at 1 µM in assay [2] (Homo sapiens, 1.0 μM, separate control 1.40 ± .17 mm) was found to be 69 ± 8%. Besides, in assay [2] (Homo sapiens, 100 μM), 100 µM produced 31 ± 7% inhibition.
Consider `C[N+]1(CCC(=O)Nc2ccc3c(c2)C(=O)c2ccc(NC(=O)CC[N+]4(C)CCCCC4CO)cc2C3=O)CCCCC1CO.[I-].[I-]` (centres unmarked) [Telomerase Inhibitor I], for which, in assay [2] (10 μM), the “% Inhibition of human hair growth” value is listed as 34 ± 6% and the “Length Increase (mm)” value is listed as 1.18 ± .10 mm. In assay [2] (100 μM), the “% Inhibition of human hair growth” value is recorded as 84 ± 5% and the “Length Increase (mm)” value was “.286 ± .09 mm”.
In the same order, the values of `O=C(CCN1CCCCC1)Nc1ccc2c(c1)C(=O)c1ccc(NC(=O)CCN3CCCCC3)cc1C2=O` [Telomerase Inhibitor V, 2,6-bis[3-(N-piperidino)propionamido]anthracene-9,10-dione] are 14 ± 8%, 1.32 ± .13 mm, 68 ± 19% and 0.25 ± .30 mm.
For `O=C1c2ccc3c4ccc5c6c(ccc(c7ccc(c2c37)C(=O)N1CCN1CCCCC1)c64)C(=O)N(CCN1CCCCC1)C5=O` [Telomerase Inhibitor IV, N,N′-bis[2-(1-piperidino)ethyl]-3,4,9,10-perylenetetracarboxylic diimide], the figures for the “% Inhibition of human hair growth” value in assay [2] (10 μM) and in assay [2] (100 μM) were 10 ± 10% and 48 ± 8%, respectively. In addition, the results for the “Length Increase (mm)” value in assay [2] (10 μM) and in assay [2] (100 μM) were 1.39 ± .16 mm and 0.80 ± .12 mm, respectively.
For the compound `C[n+]1ccc(-c2c3nc(c(-c4cc[n+](C)cc4)c4ccc([nH]4)c(-c4cc[n+](C)cc4)c4nc(c(-c5cc[n+](C)cc5)c5ccc2[nH]5)C=C4)C=C3)cc1` [TMPyP4, meso-5,10,15,20-tetrakis-(N-methyl-4-pyridy)porphine], in assay [1] (dose 1%), the “Left (mg): hair mass for vehicle with test compound” value is given as 1.73 ± .23 mg and the “% Inhibition (hair mass reduction)” value is 28 ± 8%. For the same compound, in assay [2] (73 μM), the “% Inhibition of human hair growth” value is given as 52 ± 9% and the “Length Increase (mm)” value is “.468 ± .09 mm”.

The values above are taken from patent US7439271B2, “Reduction of hair growth” (The Gillette Company, priority 2001, dated 2008).
